What was measured:
[1] = Clearance in iv dosed rat; format: ADME, organism-based; settings: in vivo
[2] = Metabolic stability in rat liver microsomes assessed as compound remaining at 1 uM after 30 mins; format: ADME; settings: read-out: Stability
[3] = Intrinsic clearance in rat liver microsomes; format: ADME; settings: read-out: CLH
[4] = biological target: T1, Glucose-dependent insulinotropic receptor (Homo sapiens, UniProt Q8TDV5); test: Agonist activity at human GPR119 expressed in HEK293 cells assessed as cAMP accumulation after 30 mins; format: functional, cell-based
T1 sequence (Q8TDV5 whole entry): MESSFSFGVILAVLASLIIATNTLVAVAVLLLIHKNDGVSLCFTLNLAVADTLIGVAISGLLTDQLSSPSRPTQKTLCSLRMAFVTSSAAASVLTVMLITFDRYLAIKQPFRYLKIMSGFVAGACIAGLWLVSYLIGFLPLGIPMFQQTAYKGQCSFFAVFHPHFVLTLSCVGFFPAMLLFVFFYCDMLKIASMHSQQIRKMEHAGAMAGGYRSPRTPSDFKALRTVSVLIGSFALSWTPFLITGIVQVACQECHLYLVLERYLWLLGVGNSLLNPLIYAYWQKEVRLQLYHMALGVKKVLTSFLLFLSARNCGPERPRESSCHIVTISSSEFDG

[5] = biological target: T2, Glucose-dependent insulinotropic receptor (Homo sapiens) (UniProt Q8TDV5); test: Agonist activity at human GPR119 expressed in HEK293 cells assessed as cAMP accumulation after 30 mins relative to isopropyl 4-(1-(4-(methylsulfonyl)phenyl)-1H-pyrazolo[3,4-d]pyrimidin-4-yloxy)piperidine-1-carboxylate; format: functional, cell-based
T2 sequence (whole entry): T1 sequence (Q8TDV5 whole entry)

[6] = Oral bioavailability in cynomolgus monkey at 2 mg/kg; format: ADME, organism-based, Macaca fascicularis; settings: in vivo
[7] = Volume of distribution at steady state in cynomolgus monkey at 0.5 mg/kg, iv; format: ADME, organism-based, Macaca fascicularis; design: dose 0.5 mg/kg, route intravenous; settings: in vivo, read-out: Vdss
[8] = biological target: T3, Glucose-dependent insulinotropic receptor (Rattus norvegicus, UniProt Q7TQN8); test: Agonist activity at rat GPR119 assessed as cAMP accumulation; format: functional
T3 sequence (Q7TQN8 whole entry): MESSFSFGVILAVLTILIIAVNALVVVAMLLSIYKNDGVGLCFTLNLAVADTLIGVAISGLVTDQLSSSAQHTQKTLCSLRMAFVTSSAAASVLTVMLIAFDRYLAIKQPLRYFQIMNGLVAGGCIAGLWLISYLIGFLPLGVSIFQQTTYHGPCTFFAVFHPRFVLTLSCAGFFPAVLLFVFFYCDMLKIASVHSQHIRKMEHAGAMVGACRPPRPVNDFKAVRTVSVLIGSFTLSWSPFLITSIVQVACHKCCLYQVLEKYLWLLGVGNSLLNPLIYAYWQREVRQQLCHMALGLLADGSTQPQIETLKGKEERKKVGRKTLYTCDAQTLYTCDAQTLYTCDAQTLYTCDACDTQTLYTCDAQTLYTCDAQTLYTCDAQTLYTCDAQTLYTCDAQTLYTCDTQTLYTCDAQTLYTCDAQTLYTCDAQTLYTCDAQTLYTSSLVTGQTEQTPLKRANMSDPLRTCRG

[9] = biological target: T4, G-protein coupled receptor 119 (Macaca fascicularis, UniProt G7Q3P2); test: Agonist activity at cynomolgus monkey GPR119 assessed as cAMP accumulation; format: functional
T4 sequence (G7Q3P2 whole entry): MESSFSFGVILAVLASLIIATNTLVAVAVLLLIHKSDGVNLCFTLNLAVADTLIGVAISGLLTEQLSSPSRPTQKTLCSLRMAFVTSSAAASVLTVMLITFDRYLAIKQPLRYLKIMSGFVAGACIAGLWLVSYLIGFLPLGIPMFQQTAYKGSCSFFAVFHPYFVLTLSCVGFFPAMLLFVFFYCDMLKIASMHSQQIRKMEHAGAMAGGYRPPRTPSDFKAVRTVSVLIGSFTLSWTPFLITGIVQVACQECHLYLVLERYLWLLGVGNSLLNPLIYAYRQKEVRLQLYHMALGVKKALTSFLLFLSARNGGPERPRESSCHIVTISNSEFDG

[10] = Plasma protein binding in human; format: ADME, cell-free; settings: read-out: PPB
[11] = Metabolic stability in human liver microsomes assessed as compound remaining at 1 uM after 30 mins; format: ADME; settings: read-out: Stability
[12] = Half life in cynomolgus monkey at 0.5 mg/kg, iv; format: ADME, organism-based, Macaca fascicularis; design: dose 0.5 mg/kg, route intravenous; settings: in vivo
[13] = Clearance in cynomolgus monkey at 0.5 mg/kg, iv; format: ADME, organism-based, Macaca fascicularis; design: dose 0.5 mg/kg, route intravenous; settings: in vivo
[14] = Volume of distribution at steady state in rat at 0.5 mg/kg, iv; format: ADME, organism-based; design: dose 0.5 mg/kg, route intravenous; settings: in vivo, read-out: Vdss
[15] = biological target: T5, Glucose-dependent insulinotropic receptor (Mus musculus, UniProt Q7TQP3); test: Agonist activity at mouse GPR119 assessed as cAMP accumulation; format: functional
T5 sequence (Q7TQP3 whole entry): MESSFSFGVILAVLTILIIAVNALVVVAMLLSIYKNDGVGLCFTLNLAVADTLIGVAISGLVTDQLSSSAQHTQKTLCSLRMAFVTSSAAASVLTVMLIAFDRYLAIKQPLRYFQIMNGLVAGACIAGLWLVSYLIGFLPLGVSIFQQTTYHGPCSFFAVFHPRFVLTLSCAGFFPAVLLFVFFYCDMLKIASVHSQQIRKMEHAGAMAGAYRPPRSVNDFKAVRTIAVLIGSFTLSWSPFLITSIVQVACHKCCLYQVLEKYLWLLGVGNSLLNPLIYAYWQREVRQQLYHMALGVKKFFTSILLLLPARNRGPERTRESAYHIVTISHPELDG

[16] = biological target: T6, Nuclear receptor subfamily 1 group I member 2 (Homo sapiens, UniProt O75469); test: Activation of human PXR
T6 sequence (O75469 whole entry): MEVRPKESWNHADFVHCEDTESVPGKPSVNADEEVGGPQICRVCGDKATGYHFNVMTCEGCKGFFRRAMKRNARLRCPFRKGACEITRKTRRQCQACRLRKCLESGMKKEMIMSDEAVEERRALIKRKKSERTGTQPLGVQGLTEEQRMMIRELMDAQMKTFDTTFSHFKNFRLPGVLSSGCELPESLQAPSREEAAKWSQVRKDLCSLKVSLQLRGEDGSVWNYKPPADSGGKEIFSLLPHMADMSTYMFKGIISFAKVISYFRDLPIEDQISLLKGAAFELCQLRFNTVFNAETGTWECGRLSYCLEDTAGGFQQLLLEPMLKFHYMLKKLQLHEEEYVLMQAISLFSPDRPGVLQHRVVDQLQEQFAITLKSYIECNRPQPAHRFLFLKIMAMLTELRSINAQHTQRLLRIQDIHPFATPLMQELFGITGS

[17] = Inhibition of Cytochrome P450 (unknown origin); format: ADME; settings: human
[18] = Half life in rat at 0.5 mg/kg, iv; format: ADME, organism-based; design: dose 0.5 mg/kg, route intravenous; settings: in vivo
Bile salt export pump = Bile salt export pump (Homo sapiens, UniProt O95342); test: Binding affinity to BSEP (unknown origin)
Chain of Bile salt export pump (O95342 whole entry): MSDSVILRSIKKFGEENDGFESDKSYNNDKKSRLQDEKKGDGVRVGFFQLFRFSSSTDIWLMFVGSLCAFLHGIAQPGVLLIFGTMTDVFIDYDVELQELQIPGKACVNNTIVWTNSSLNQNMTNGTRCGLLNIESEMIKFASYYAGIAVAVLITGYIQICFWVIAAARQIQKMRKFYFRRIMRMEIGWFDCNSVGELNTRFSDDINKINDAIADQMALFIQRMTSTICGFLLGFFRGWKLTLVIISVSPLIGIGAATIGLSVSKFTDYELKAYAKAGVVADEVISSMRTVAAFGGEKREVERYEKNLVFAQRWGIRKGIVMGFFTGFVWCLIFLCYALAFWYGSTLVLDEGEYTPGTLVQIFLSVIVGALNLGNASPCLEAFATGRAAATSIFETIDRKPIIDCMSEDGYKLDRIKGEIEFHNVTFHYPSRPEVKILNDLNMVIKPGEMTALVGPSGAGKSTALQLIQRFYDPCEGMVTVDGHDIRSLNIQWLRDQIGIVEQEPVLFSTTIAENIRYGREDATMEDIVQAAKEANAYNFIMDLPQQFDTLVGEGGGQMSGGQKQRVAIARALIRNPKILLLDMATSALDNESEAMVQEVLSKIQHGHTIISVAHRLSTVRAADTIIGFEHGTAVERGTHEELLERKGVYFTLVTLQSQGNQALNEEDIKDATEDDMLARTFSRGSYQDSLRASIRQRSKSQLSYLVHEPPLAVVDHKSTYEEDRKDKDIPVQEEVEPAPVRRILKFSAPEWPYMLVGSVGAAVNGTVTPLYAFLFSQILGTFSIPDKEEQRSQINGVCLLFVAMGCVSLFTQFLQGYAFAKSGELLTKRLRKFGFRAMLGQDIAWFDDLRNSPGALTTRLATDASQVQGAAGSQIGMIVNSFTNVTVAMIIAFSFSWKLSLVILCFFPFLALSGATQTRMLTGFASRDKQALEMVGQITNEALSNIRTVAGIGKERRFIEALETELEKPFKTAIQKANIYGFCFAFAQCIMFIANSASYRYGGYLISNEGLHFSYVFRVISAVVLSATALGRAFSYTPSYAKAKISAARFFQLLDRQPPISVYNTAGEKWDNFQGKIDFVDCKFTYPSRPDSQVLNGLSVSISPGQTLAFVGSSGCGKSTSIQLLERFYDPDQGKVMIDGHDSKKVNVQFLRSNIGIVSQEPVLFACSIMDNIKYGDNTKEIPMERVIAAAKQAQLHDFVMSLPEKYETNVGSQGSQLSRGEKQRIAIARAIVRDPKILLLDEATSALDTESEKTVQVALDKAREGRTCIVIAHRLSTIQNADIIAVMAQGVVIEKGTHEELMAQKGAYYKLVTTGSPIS

[19] = Plasma protein binding in cynomolgus monkey; format: ADME, cell-free, Macaca fascicularis; settings: read-out: PPB
[20] = Clearance in rat at 0.5 mg/kg, iv; format: ADME, organism-based; design: dose 0.5 mg/kg, route intravenous; settings: in vivo
[21] = biological target: T7, G-protein coupled receptor 119 (Macaca fascicularis) (UniProt G7Q3P2); test: Agonist activity at cynomolgus monkey GPR119 assessed as cAMP accumulation relative to control; format: functional
T7 sequence (whole entry): T4 sequence (G7Q3P2 whole entry)

[22] = Intrinsic clearance in human liver microsomes at 1 uM after 30 mins; format: ADME; settings: read-out: CLH
[23] = Oral bioavailability in rat at 2 mg/kg; format: ADME, organism-based; settings: in vivo
[24] = Intrinsic clearance in human liver microsomes; format: ADME; settings: read-out: CLH

Compound | microsomal CLint [3] [µL/min/mg] | EC50 [4] [nM] | Efficacy [5] [%] | also measured
Cc1cc2c(c(Oc3cccc(NS(=O)(=O)c4ccc(Cl)cc4)c3)n1)C(=O)N(C(C)C)C2=O | 250 | 13 | 99 | clearance [1]: 80 mL/min/kg; remaining at 0.5 h, 1 µM [2]: 15%
Cc1cc2c(c(Oc3cccc(NS(=O)(=O)c4ccc(Cl)cc4)c3)n1)C(=O)NC2=O | – | 121 | 109 | –
Cc1cc2c(c(Oc3cc(NS(=O)(=O)c4ccc(Cl)cc4)ccc3F)n1)C(=O)N(C(C)C)C2=O | 84 | 16 | – | bioavailability [6]: 29%; Vd [7]: 1.1 L/kg; EC50 [8]: 2050 nM; EC50 [9]: 73 nM; fraction unbound [10]: < 0.01; remaining at 0.5 h, 1 µM [11]: 88%; half-life [12]: 5.6 h; clearance [13]: 7.5 mL/min/kg; Vd [14]: 1.5 L/kg; EC50 [15]: 1900 nM; Activity [16]: Not Active; inhibition (INH) [17]: Not Active; half-life [18]: 1.5 h; Activity (Bile salt export pump): Not Active; fraction unbound [19]: < 0.01; clearance [20]: 11.8 mL/min/kg; Efficacy [21]: 102%; microsomal CLint at 1 µM [22]: 29 µL/min/mg; bioavailability [23]: 95%
Cc1cc2c(c(Oc3cccc(NS(=O)(=O)c4ccc(Cl)cc4)c3)n1)C(=O)N(C1CCCC1)C2=O | – | 69 | 95 | –
Cc1cc2c(c(Oc3cccc(NC(=O)c4ccc(Cl)cc4)c3)n1)C(=O)N(C(C)C)C2=O | 40 | > 30000 | – | –
COc1cc2c(c(Oc3cccc(NS(=O)(=O)c4ccc(Cl)cc4)c3)n1)C(=O)N(C1CC1)C2=O | – | 19 | 97 | –
Cc1cc2c(c(Oc3cc(NS(=O)(=O)c4ccc(Cl)cc4)ccc3Cl)n1)C(=O)N(C(C)C)C2=O | 29 | 33 | – | clearance [1]: 3.67 mL/min/kg
Cc1cc2c(c(Oc3cccc(S(=O)(=O)Nc4ccc(Cl)cc4)c3)n1)C(=O)N(C(C)C)C2=O | – | 238 | – | –
Cc1cc2c(c(Oc3cccc(NS(=O)(=O)c4ccc(Cl)cc4)c3F)n1)C(=O)N(C(C)C)C2=O | – | 493 | – | –
Cc1cc2c(c(Oc3cc(F)cc(NS(=O)(=O)c4ccc(Cl)cc4)c3)n1)C(=O)N(C(C)C)C2=O | – | 357 | – | –
CC(C)OC(=O)N1CCC(Oc2ncnc3c2cnn3-c2ccc(S(C)(=O)=O)cc2)CC1 | – | 41 | – | –
Cc1cc2c(c(Sc3cccc(NS(=O)(=O)c4ccc(Cl)cc4)c3)n1)C(=O)N(C(C)C)C2=O | – | 19 | 76 | –
Cc1cc2c(c(Nc3ccc(C)c(NS(=O)(=O)c4ccc(Cl)cc4)c3)n1)C(=O)N(C(C)C)C2=O | – | 382 | 81 | –
Cc1cc2c(c(Oc3ccc(C)c(NS(=O)(=O)c4ccc(Cl)cc4)c3)n1)C(=O)N(C(C)C)C2=O | 131 | 9 | – | –
Cc1cc2c(c(Oc3cccc(NS(=O)(=O)c4ccc(Cl)cc4)c3)n1)C(=O)N(c1ccccc1)C2=O | – | 299 | 102 | –
Cc1cc2c(c(Oc3cccc(NS(=O)(=O)c4ccc(Cl)cc4)c3)n1)C(=O)N(C1CC1)C2=O | – | 15 | 111 | –
O=C1c2cc(C3CC3)nc(Oc3cccc(NS(=O)(=O)c4ccc(Cl)cc4)c3)c2C(=O)N1C1CC1 | 63 | 45 | 99 | microsomal CLint [24]: 27 µL/min/mg
Cc1cc2c(c(Oc3cccc(N(C)S(=O)(=O)c4ccc(Cl)cc4)c3)n1)C(=O)N(C(C)C)C2=O | > 400 | 11 | – | –
Cc1cc2c(c(Oc3cccc(NS(=O)(=O)c4ccc(Cl)cc4)c3)n1)C(=O)N(C)C2=O | – | 23 | 122 | –
CCN1C(=O)c2cc(C)nc(Oc3cccc(NS(=O)(=O)c4ccc(Cl)cc4)c3)c2C1=O | – | 11 | 120 | –
Cc1cc2c(c(Sc3ccc(C)c(NS(=O)(=O)c4ccc(Cl)cc4)c3)n1)C(=O)N(C(C)C)C2=O | – | 224 | 85 | –
